In US20250332143A1, “COMPOSITION COMPRISING ALOX5 INHIBITOR FOR PREVENTING OR TREATING SARCOPENIA” (PLUTO Inc., priority 2022, published 2025):
Entries after “also recorded” stand apart in the source; their conditions may differ.

Legend:
human myotubes = assay: Dexamethasone-induced atrophy of human skeletal myotubes, H&E, diameter; assay type: cell-based; conditions: dexamethasone co-treatment
Experimental: Human-derived myoblasts were purchased from Thermo-Fisher Scientific (USA). Myoblasts were thawed using a water bath, centrifuged at 180 g for 5 min at room temperature, and washed with 20 mL DM. Myoblasts were then resuspended in DM and seeded in a 12-well plate at a density of 4.8×10^4 cells/well. After 48 hours, myoblasts were treated with compounds of interest for 24 hours. Myotubes were stained with H&E. After light microscopy analysis of DIC captured images (Olympus CKX41), myotubes were measured using ImageJ 1.48 software (National Institutes of Health, USA).

LC3b, p62 = assay: Western blot of autophagy markers LC3b I, LC3b II and p62 in Dex-treated myotubes; assay type: cell-based, mouse
Experimental: (§1) C2C12 murine skeletal muscle myoblasts were obtained from Koram Biotech (Republic of Korea). The cells were maintained in DMEM growth medium supplemented with 10% FBS, 1% penicillin, and streptomycin. When myoblasts proliferated to approximately 90%, they were differentiated into muscle fibers by treating them with DMEM differentiation medium supplemented with 2% HS, 1% penicillin, and streptomycin for 96 hours. Differentiated muscle fibers were treated with 10 μM Dex for 24 hours to induce sarcopenia. To evaluate the degree of differentiation of muscle cells, differentiating myoblasts were treated with the corresponding compound in differentiation medium for 24 or 48 hours. The concentration of intracellular protein was measured using the Bradford assay (Bio-Rad, USA, CA), and electrophoresis was performed by loading on 10% and 12% polyacrylamide gels. Afterwards, the separated proteins were transferred to a PVDF membrane, and the primary antibody used was diluted 1:1000 in TBS-T containing 5% skim milk and incubated overnight at 4° C. Secondary antibodies were diluted 1:2000 and incubated for 35 minutes at room temperature (RT). Band intensity was measured using ImageJ 1.52 software (National Institutes of Health, USA), and intracellular protein was normalized to α-tubulin.

[1] = test system: differentiating C2C12 myoblasts; assay: Myogenesis of mouse myotubes differentiated in presence of compound; assay type: cell-based
Experimental: (§2) C2C12 murine skeletal muscle myoblasts were obtained from Koram Biotech (Republic of Korea). The cells were maintained in DMEM growth medium supplemented with 10% FBS, 1% penicillin, and streptomycin. When myoblasts proliferated to approximately 90%, they were differentiated into muscle fibers by treating them with DMEM differentiation medium supplemented with 2% HS, 1% penicillin, and streptomycin for 96 hours. Differentiated muscle fibers were treated with 10 μM Dex for 24 hours to induce sarcopenia. To evaluate the degree of differentiation of muscle cells, differentiating myoblasts were treated with the corresponding compound in differentiation medium for 24 or 48 hours.
The concentration of intracellular protein was measured using the Bradford assay (Bio-Rad, USA, CA), and electrophoresis was performed by loading on 10% and 12% polyacrylamide gels. Afterwards, the separated proteins were transferred to a PVDF membrane, and the primary antibody used was diluted 1:1000 in TBS-T containing 5% skim milk and incubated overnight at 4° C. Secondary antibodies were diluted 1:2000 and incubated for 35 minutes at room temperature (RT). Band intensity was measured using ImageJ 1.52 software (National Institutes of Health, USA), and intracellular protein was normalized to α-tubulin.
For quantitative real-time PCR, transcript levels of genes of interest were analyzed using the StepOnePlus real-time PCR system (Applied Biosystems, UK). Total RNA was reverse transcribed to prepare cDNA using AccuPower® RT PreMix (Bioneer Corporation). […] Denaturation was performed at 95° C. for 15 s, annealing was performed at 60° C. for 1 min, and extension was performed at 72° C. for 20 s with fluorescence detection at 72° C. after each cycle. After the final cycle, melting point analysis of all samples was performed within the range of 60 to 95° C. using continuous fluorescence detection. […] Results were expressed as relative expression levels for each gene. The synthesized cDNA was amplified by quantitative real-time PCR (qRT-PCR) or standard PCR.

LTB4 = LTB4 ELISA in C2C12 muscle fibers; assay type: cell-based, mouse; conditions: Dex-treated myotubes
Experimental: as §2, with “48 hours. An LTB4 ELISA kit was purchased from MyBioSource (CA, USA). The concentrations of LTB4 in skeletal muscles and cell lysates were measured by the enzyme-linked […] method according to the manufacturer's instructions. Samples (100 μL) were maintained at room temperature (RT) for 1 hour in 96 wells with polyclonal LTB4 antibody. Afterwards, an enzymatic reaction was performed to stop the process, and the absorbance was measured at 405 nm.” for “48 hours.”

Atrogin-1 and MuRF-1 [2] = assay: qPCR of muscle atrophy regulators in Dex-treated C2C12 myotubes; assay type: cell-based, mouse
Experimental: as §2
(§3) For quantitative real-time PCR, transcript levels of genes of interest were analyzed using the StepOnePlus real-time PCR system (Applied Biosystems, UK). Total RNA was reverse transcribed to prepare cDNA using AccuPower® RT PreMix (Bioneer Corporation). The obtained cDNA was subjected to real-time PCR according to the manufacturer's instructions with the following changes. PCR was performed in triplicate in a total volume of 20 μL 2× Power SYBR Green PCR Master Mix (Enzynomics, Republic of Korea) containing 200 nM (final concentration) of each specific primer and 1 μL of cDNA synthesized from 1 μg of total RNA. PCR amplification consisted of incubating the mixture at 95° C. for 10 minutes, followed by 40 cycles of denaturation, annealing, and extension. Denaturation was performed at 95° C. for 15 s, annealing was performed at 60° C. for 1 min, and extension was performed at 72° C. for 20 s with fluorescence detection at 72° C. after each cycle. After the final cycle, melting point analysis of all samples was performed within the range of 60 to 95° C. using continuous fluorescence detection. Specific cDNA samples were included in each run and used as reference material for comparison between runs. The expression level of GAPDH was used to calculate and normalize the expression levels of all other genes. Results were expressed as relative expression levels for each gene. The synthesized cDNA was amplified by quantitative real-time PCR (qRT-PCR) or standard PCR.

atrogin-1 and MuRF-1 [3] = assay: qPCR of atrogin-1 and MuRF-1 in human myotubes; assay type: cell-based
Experimental: as §3, with “PCR amplification consisted of incubating the mixture at 95° C. for 10 minutes, followed by 40 cycles of denaturation, annealing, and extension.” left out, “Specific cDNA samples were included in each run and used as reference material for comparison between runs. The expression level of GAPDH was used to calculate and normalize the expression levels of all other genes.” left out
Human-derived myoblasts were purchased from Thermo-Fisher Scientific (USA). […] Myotubes were stained with H&E. After light microscopy analysis of DIC captured images (Olympus CKX41), myotubes were measured using ImageJ 1.48 software (National Institutes of Health, USA).

[4] = test system: Dex-treated C2C12 myotubes; assay: SUNSET assay of protein synthesis in Dex-treated myotubes; assay type: cell-based, mouse
Experimental: as §1

`CC(C)OC(=O)C(C(=O)OC(C)C)=C1SC=CS1` [malotilate, Malotilate] was tested, and the “atrophy of human myotubes” value (human myotubes; 24 hours) was “can prevent atrophy”, the mean myotube diameter (human myotubes; human myotubes) was “increased” and the “proportion of myotubes of larger size” value (human myotubes; human myotubes) was “greater proportion”. The autophagy (LC3b, p62) was “reduced”, the “expression of p62” value (LC3b, p62) was “increases” and the “ratio of LC3bII to LC3bI” value (LC3b, p62) was “decreases”. The “expression of master gene regulators of the myogenic program (Pax7, Myf5, MyoG, Myh2)” value ([1]; after 24 h of treatment, qPCR) was “no significant changes”, the “phosphorylation level of Akt” value ([1]; differentiated myotubes) was “not significantly altered” and the “expression of differentiation marker Myh2” value ([1]; during myogenesis, Western blot) was “not affected”. The LTB4 levels (LTB4) was “lowered”, the “Atrogin-1 expression (mRNA, qPCR)” value (Atrogin-1 and MuRF-1 [2]) was “inhibited the upregulation; also recorded: decreased” and the “MuRF-1 expression (mRNA, qPCR)” value (Atrogin-1 and MuRF-1 [2]) was “inhibited the upregulation; also recorded: decreased”. The MuRF-1 expression (atrogin-1 and MuRF-1 [3]) was “significantly reduced”, the atrogin-1 expression (atrogin-1 and MuRF-1 [3]) was “significantly reduced” and the total protein synthesis [4] was “restored”.
